Measurements as given in PubChem BioAssay AID248 (DTP/NCI, 2004).
Inconclusive results and toxic doses are left out. Rule as the data show it: active = T/C of 150% or more; inactive = T/C below 125%.

Test system: L1210 leukemia ip in BDF1 mice, survival T/C
Assay: NCI In Vivo Anticancer Drug Screen. Data for tumor model L1210 Leukemia (intraperitoneal) in B6D2F1 (BDF1) mice
Conditions: endpoint: mean survival time, higher = longer survival
Method in brief: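 In this screen, tumor-bearing mice given compound are compared to those given vehicle, and their survival values are reported as a treated-to-control quotient.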

[1] = dose: 100.0 mg/kg/injection, schedule: Q01DX009 (ip), vehicle: Klucel (hydroxypropylcellulose) (HPC)
[2] = dose: 200.0 mg/kg/injection, schedule: Q01DX009 (ip), vehicle: Klucel (hydroxypropylcellulose) (HPC)
[3] = dose: 100.0 mg/kg/injection, schedule: Q01DX001 (ip), vehicle: saline
[4] = dose: 100.0 mg/kg/injection, schedule: Q04DX003 (ip), vehicle: Klucel (hydroxypropylcellulose) (HPC)
[5] = dose: 200.0 mg/kg/injection, schedule: Q04DX003 (ip), vehicle: Klucel (hydroxypropylcellulose) (HPC)
[6] = dose: 50.0 mg/kg/injection, schedule: Q04DX003 (ip), vehicle: saline
[7] = dose: 200.0 mg/kg/injection, schedule: Q01DX001 (ip), vehicle: saline
[8] = dose: 400.0 mg/kg/injection, schedule: Q01DX001 (ip), vehicle: saline

Measured: T/C

O=C(Cn1ccc(=O)[nH]c1=O)N1CCOCC1
inactive: dose: 100.0 mg/kg/injection, schedule: Q01DX009 (ip), vehicle: water 91 % of control | dose: 100.0 mg/kg/injection, schedule: Q04DX003 (ip), vehicle: water 100 % of control | dose: 200.0 mg/kg/injection, schedule: Q01DX009 (ip), vehicle: water 90 % of control | dose: 200.0 mg/kg/injection, schedule: Q04DX003 (ip), vehicle: water 92 % of control | dose: 400.0 mg/kg/injection, schedule: Q01DX009 (ip), vehicle: water 104 % of control | dose: 400.0 mg/kg/injection, schedule: Q04DX003 (ip), vehicle: water 94 % of control

CN1CCOC1=Nc1cccc2c1CCCC2
inactive: dose: 50.0 mg/kg/injection, schedule: Q01DX009 (ip), vehicle: other 96 % of control | dose: 100.0 mg/kg/injection, schedule: Q01DX009 (ip), vehicle: other 101 % of control | dose: 400.0 mg/kg/injection, schedule: Q01DX009 (ip), vehicle: other 95 % of control

COc1ccc(-c2sc(/N=C/c3cccs3)c(C#N)c2C)cc1OC
inactive: [1] 94 % of control | [2] 95 % of control | dose: 400.0 mg/kg/injection, schedule: Q01DX009 (ip), vehicle: Klucel (hydroxypropylcellulose) (HPC) 97 % of control

COC(=O)c1ccc(C)cn1
inactive: [3] 100 % of control

Cc1c2oc3c(C)ccc(C(=O)OCCN4CCCC4)c3nc-2c(C(=O)OCCN2CCCC2)c(N)c1=O
inactive: dose: 100.0 mg/kg/injection, schedule: Q04DX002 (ip), vehicle: saline with Tween-80 98 % of control | dose: 200.0 mg/kg/injection, schedule: Q04DX002 (ip), vehicle: saline with Tween-80 106 % of control | dose: 400.0 mg/kg/injection, schedule: Q04DX002 (ip), vehicle: saline with Tween-80 98 % of control

O=C(O)CCSSCCC(=O)O
inactive: dose: 50.0 mg/kg/injection, schedule: Q04DX003 (ip), vehicle: Klucel (hydroxypropylcellulose) (HPC) 103 % of control | [1] 95 % of control | [4] 86 % of control | [2] 87 % of control | [5] 86 % of control

COc1ccc(OC)c(NC(=O)Nc2ccc(I)cc2)c1
inactive: dose: 100.0 mg/kg/injection, schedule: Q04DX002 (ip), vehicle: Klucel (hydroxypropylcellulose) (HPC) 96 % of control | dose: 200.0 mg/kg/injection, schedule: Q04DX002 (ip), vehicle: Klucel (hydroxypropylcellulose) (HPC) 96 % of control | dose: 400.0 mg/kg/injection, schedule: Q04DX002 (ip), vehicle: Klucel (hydroxypropylcellulose) (HPC) 107 % of control

CCC1CC[N-]CC1.CCC1CC[N-]CC1.[Cl][Pt+2]([Cl])([Cl])[Cl]
inactive: dose: 6.25 mg/kg/injection, schedule: Q01DX009 (ip), vehicle: saline 103 % of control | dose: 12.5 mg/kg/injection, schedule: Q01DX009 (ip), vehicle: saline 110 % of control | dose: 12.5 mg/kg/injection, schedule: Q04DX003 (ip), vehicle: saline 97 % of control | dose: 25.0 mg/kg/injection, schedule: Q01DX009 (ip), vehicle: saline 86 % of control | dose: 25.0 mg/kg/injection, schedule: Q04DX003 (ip), vehicle: saline 95 % of control | [6] 104 % of control

O=c1[nH][nH]c(=O)c2c([N+](=O)[O-])cccc12
inactive: dose: 100.0 mg/kg/injection, schedule: Q01DX001 (ip), vehicle: other 90 % of control | dose: 200.0 mg/kg/injection, schedule: Q01DX001 (ip), vehicle: other 92 % of control | dose: 400.0 mg/kg/injection, schedule: Q01DX001 (ip), vehicle: other 87 % of control

CCCCCCCCCCCCCCCC(=O)Nc1ccc(C(=O)O)cc1
inactive: [4] 95 % of control | [5] 94 % of control | dose: 400.0 mg/kg/injection, schedule: Q04DX003 (ip), vehicle: Klucel (hydroxypropylcellulose) (HPC) 94 % of control

COc1cc(CC#N)cc(OC)c1
inactive: dose: 50.0 mg/kg/injection, schedule: Q01DX009 (ip), vehicle: saline with Tween-80 102 % of control | dose: 100.0 mg/kg/injection, schedule: Q01DX009 (ip), vehicle: saline with Tween-80 88 % of control

NC1C(=O)NC(=O)NC1=S (configuration not stated)
inactive: dose: 29.0 mg/kg/injection, schedule: Q01DX Z (ip), vehicle: methylcellulose (MC) 100 % of control | dose: 45.0 mg/kg/injection, schedule: Q01DX Z (ip), vehicle: methylcellulose (MC) 107 % of control

O=C(O)Cc1c(O)ccc2ccccc12
inactive: dose: 100.0 mg/kg/injection, schedule: Q01DX009 (ip), vehicle: gum acacia 92 % of control | dose: 100.0 mg/kg/injection, schedule: Q04DX003 (ip), vehicle: gum acacia 97 % of control | dose: 200.0 mg/kg/injection, schedule: Q01DX009 (ip), vehicle: gum acacia 90 % of control | dose: 200.0 mg/kg/injection, schedule: Q04DX003 (ip), vehicle: gum acacia 92 % of control | dose: 400.0 mg/kg/injection, schedule: Q01DX009 (ip), vehicle: gum acacia 98 % of control | dose: 400.0 mg/kg/injection, schedule: Q04DX003 (ip), vehicle: gum acacia 90 % of control

C[C@]12CCC(=O)C=C1CC[C@H]1[C@@H]3CCC(=O)O[C@@]3(C)CC(=O)[C@@]12F
inactive: dose: 100.0 mg/kg/injection, schedule: Q01DX001 (ip), vehicle: carboxymethylcellulose (CMC) 94 % of control | dose: 200.0 mg/kg/injection, schedule: Q01DX001 (ip), vehicle: carboxymethylcellulose (CMC) 100 % of control | dose: 400.0 mg/kg/injection, schedule: Q01DX001 (ip), vehicle: carboxymethylcellulose (CMC) 97 % of control

Cc1ccc(S(=O)(=O)OC2C(C)C3CS(=O)(=O)C32)cc1 (configuration not stated)
inactive: dose: 100.0 mg/kg/injection, schedule: Q04DX002 (ip), vehicle: DMSO 119 % of control | dose: 200.0 mg/kg/injection, schedule: Q04DX002 (ip), vehicle: DMSO 105 % of control | dose: 400.0 mg/kg/injection, schedule: Q04DX002 (ip), vehicle: DMSO 102 % of control

CC(=O)CC(C)=NCCN=C(C)CC(C)=O.[Ni]
inactive: dose: 1.56 mg/kg/injection, schedule: Q01DX009 (ip), vehicle: gum acacia 103 % of control | dose: 3.12 mg/kg/injection, schedule: Q01DX009 (ip), vehicle: gum acacia 104 % of control | dose: 6.25 mg/kg/injection, schedule: Q01DX009 (ip), vehicle: gum acacia 100 % of control | dose: 12.5 mg/kg/injection, schedule: Q01DX009 (ip), vehicle: gum acacia 99 % of control | dose: 12.5 mg/kg/injection, schedule: Q04DX003 (ip), vehicle: gum acacia 117 % of control | dose: 25.0 mg/kg/injection, schedule: Q04DX003 (ip), vehicle: gum acacia 118 % of control | dose: 50.0 mg/kg/injection, schedule: Q04DX003 (ip), vehicle: gum acacia 103 % of control

COC1C(OC(=O)/C=C/C=C/C=C/C=C/C(=O)O)CCC2(CO2)C1C1(C)OC1CC=C(C)C (configuration not stated)
inactive: dose: 2.5 mg/kg/injection, schedule: Q01DX Z (ip), vehicle: methylcellulose (MC) 115 % of control | dose: 5.0 mg/kg/injection, schedule: Q01DX Z (ip), vehicle: methylcellulose (MC) 110 % of control | dose: 10.0 mg/kg/injection, schedule: Q01DX Z (ip), vehicle: methylcellulose (MC) 115 % of control | dose: 10.0 mg/kg/injection, schedule: Q01DX Z (ip), vehicle: saline 109 % of control | dose: 20.0 mg/kg/injection, schedule: Q01DX Z (ip), vehicle: methylcellulose (MC) 118 % of control | dose: 20.0 mg/kg/injection, schedule: Q01DX Z (ip), vehicle: saline 115 % of control | dose: 40.0 mg/kg/injection, schedule: Q01DX Z (ip), vehicle: methylcellulose (MC) 121 % of control | dose: 40.0 mg/kg/injection, schedule: Q01DX Z (ip), vehicle: saline 123 % of control | dose: 50.0 mg/kg/injection, schedule: Q01DX009 (ip), vehicle: saline 101 % of control | [6] 116 % of control | dose: 80.0 mg/kg/injection, schedule: Q01DX Z (ip), vehicle: saline 120 % of control | [3] 93 % of control | dose: 100.0 mg/kg/injection, schedule: Q01DX009 (ip), vehicle: saline 101 % of control | dose: 100.0 mg/kg/injection, schedule: Q04DX003 (ip), vehicle: saline 93 % of control | [7] 93 % of control | dose: 200.0 mg/kg/injection, schedule: Q01DX009 (ip), vehicle: saline 106 % of control | dose: 200.0 mg/kg/injection, schedule: Q04DX003 (ip), vehicle: saline 98 % of control

CC(=O)C1(C)OC(c2ccccc2)=NC1=O (configuration not stated)
inactive: [3] 104 % of control | [7] 93 % of control | [8] 115 % of control

ClC(Cl)(Cl)C1OCCCO1
inactive: [3] 97 % of control | [7] 107 % of control | [8] 103 % of control
